Active and inactive are the calls of the source. The rule behind the calls is not given here.
Tested on: CCRIS mutagenicity, Ames/micronucleus/aberration tests
Experiment: CCRIS mutagenicity studies
[1] = Test System: AMES SALMONELLA TYPHIMURIUM, Strain/Indicator: TA98, Metabolic Activation: NONE, Method: PREINCUBATION
[2] = Test System: AMES SALMONELLA TYPHIMURIUM, Strain/Indicator: TA100, Metabolic Activation: NONE, Method: PREINCUBATION
[3] = Test System: AMES SALMONELLA TYPHIMURIUM, Strain/Indicator: TA98, Metabolic Activation: NONE, Method: STANDARD PLATE
[4] = Test System: AMES SALMONELLA TYPHIMURIUM, Strain/Indicator: TA98, Metabolic Activation: RAT, LIVER, S-9, AROCLOR 1254, Method: STANDARD PLATE
[5] = Test System: AMES SALMONELLA TYPHIMURIUM, Strain/Indicator: TA100, Metabolic Activation: NONE, Method: STANDARD PLATE
[6] = Test System: AMES SALMONELLA TYPHIMURIUM, Strain/Indicator: TA100, Metabolic Activation: RAT, LIVER, S-9, AROCLOR 1254, Method: STANDARD PLATE
[7] = Test System: AMES SALMONELLA TYPHIMURIUM, Strain/Indicator: TA1537, Metabolic Activation: NONE, Method: STANDARD PLATE
[8] = Test System: AMES SALMONELLA TYPHIMURIUM, Strain/Indicator: TA1537, Metabolic Activation: RAT, LIVER, S-9, AROCLOR 1254, Method: STANDARD PLATE

CCC[C@H]1O[C@H]1c1ccccc1
mutagenic call (Test System: AMES SALMONELLA TYPHIMURIUM, Strain/Indicator: TA98, Metabolic Activation: NONE, Method: PREINCUBATION (PHOSPHATE-BUFFERED KCL OR SOLUTE-FREE WATER MEDIA)): inactive; negative
mutagenic call (Test System: AMES SALMONELLA TYPHIMURIUM, Strain/Indicator: TA100, Metabolic Activation: NONE, Method: PREINCUBATION (PHOSPHATE-BUFFERED KCL OR SOLUTE-FREE WATER MEDIA)): inactive; negative
mutagenic call (Test System: AMES SALMONELLA TYPHIMURIUM, Strain/Indicator: TA104, Metabolic Activation: NONE, Method: PREINCUBATION (PHOSPHATE-BUFFERED KCL OR SOLUTE-FREE WATER MEDIA)): inactive; negative

CO
mutagenic call [1]: inactive; negative
mutagenic call (Test System: AMES SALMONELLA TYPHIMURIUM, Strain/Indicator: TA98, Metabolic Activation: RAT, LIVER, S-9, KC 500, Method: PREINCUBATION): inactive; negative
mutagenic call [2]: inactive; negative
mutagenic call (Test System: AMES SALMONELLA TYPHIMURIUM, Strain/Indicator: TA100, Metabolic Activation: RAT, LIVER, S-9, KC 500, Method: PREINCUBATION): inactive; negative
mutagenic call (Test System: AMES SALMONELLA TYPHIMURIUM, Strain/Indicator: TA1535, Metabolic Activation: NONE, Method: PREINCUBATION): inactive; negative
mutagenic call (Test System: AMES SALMONELLA TYPHIMURIUM, Strain/Indicator: TA1535, Metabolic Activation: RAT, LIVER, S-9, KC 500, Method: PREINCUBATION): inactive; negative
mutagenic call (Test System: AMES SALMONELLA TYPHIMURIUM, Strain/Indicator: TA1537, Metabolic Activation: NONE, Method: PREINCUBATION): inactive; negative
mutagenic call (Test System: AMES SALMONELLA TYPHIMURIUM, Strain/Indicator: TA1537, Metabolic Activation: RAT, LIVER, S-9, KC 500, Method: PREINCUBATION): inactive; negative
mutagenic call (Test System: AMES SALMONELLA TYPHIMURIUM, Strain/Indicator: TA1538, Metabolic Activation: NONE, Method: PREINCUBATION): inactive; negative
mutagenic call (Test System: AMES SALMONELLA TYPHIMURIUM, Strain/Indicator: TA1538, Metabolic Activation: RAT, LIVER, S-9, KC 500, Method: PREINCUBATION): inactive; negative
mutagenic call (Test System: E. COLI, Strain/Indicator: WP2 UVRA, Metabolic Activation: NONE, Method: PREINCUBATION): inactive; negative
mutagenic call (Test System: E. COLI, Strain/Indicator: WP2 UVRA, Metabolic Activation: RAT, LIVER, S-9, KC 500, Method: PREINCUBATION): inactive; negative

C=C(Br)CCl
mutagenic call (Test System: AMES SALMONELLA TYPHIMURIUM, Strain/Indicator: TA100, Metabolic Activation: RAT, LIVER, MICROSOMES, PHENOBARBITAL, NADPH COFACTORS, Method: STANDARD PLATE): active; positive
mutagenic call (Test System: AMES SALMONELLA TYPHIMURIUM, Strain/Indicator: TA100, Metabolic Activation: RAT, LIVER, MICROSOMES, PHENOBARBITAL, Method: STANDARD PLATE): inactive; negative

Cc1cc2ccccc2c2ccc3c(c12)C=CC(=O)C3=O
mutagenic call (Test System: AMES SALMONELLA TYPHIMURIUM, Strain/Indicator: TA97A, Metabolic Activation: NONE, Method: PREINCUBATION): active; positive
mutagenic call [1]: inactive; negative
mutagenic call [2]: active; positive
mutagenic call (Test System: AMES SALMONELLA TYPHIMURIUM, Strain/Indicator: TA102, Metabolic Activation: NONE, Method: PREINCUBATION): inactive; negative
mutagenic call (Test System: AMES SALMONELLA TYPHIMURIUM, Strain/Indicator: TA104, Metabolic Activation: NONE, Method: PREINCUBATION): inactive; negative

c1ccc2c(c1)OCCOCCOCCOCCO2
mutagenic call [3]: inactive; negative
mutagenic call [4]: inactive; negative
mutagenic call [5]: inactive; negative
mutagenic call [6]: inactive; negative
mutagenic call (Test System: AMES SALMONELLA TYPHIMURIUM, Strain/Indicator: TA1530, Metabolic Activation: NONE, Method: STANDARD PLATE): inactive; negative
mutagenic call (Test System: AMES SALMONELLA TYPHIMURIUM, Strain/Indicator: TA1530, Metabolic Activation: RAT, LIVER, S-9, AROCLOR 1254, Method: STANDARD PLATE): inactive; negative
mutagenic call [7]: inactive; negative
mutagenic call [8]: inactive; negative

N#Cc1cc([N+](=O)[O-])ccc1N=Nc1ccc(N(CCO)CCO)cc1
mutagenic call [3]: active; positive
mutagenic call [4]: active; positive
mutagenic call [5]: active; positive
mutagenic call [6]: active; positive
mutagenic call (Test System: AMES SALMONELLA TYPHIMURIUM, Strain/Indicator: TA1535, Metabolic Activation: NONE, Method: STANDARD PLATE): inactive; negative
mutagenic call (Test System: AMES SALMONELLA TYPHIMURIUM, Strain/Indicator: TA1535, Metabolic Activation: RAT, LIVER, S-9, AROCLOR 1254, Method: STANDARD PLATE): inactive; negative
mutagenic call [7]: active; positive
mutagenic call [8]: active; positive
mutagenic call (Test System: AMES SALMONELLA TYPHIMURIUM, Strain/Indicator: TA1538, Metabolic Activation: NONE, Method: STANDARD PLATE): active; positive
mutagenic call (Test System: AMES SALMONELLA TYPHIMURIUM, Strain/Indicator: TA1538, Metabolic Activation: RAT, LIVER, S-9, AROCLOR 1254, Method: STANDARD PLATE): active; positive
mutagenic call (Test System: CHINESE HAMSTER V-79, Strain/Indicator: V-79 (HGPRT)/6-THIOGUANINE, Metabolic Activation: RAT, LIVER, S-9, AROCLOR 1254): inactive; negative
mutagenic call (Test System: CHINESE HAMSTER V-79, Strain/Indicator: V-79/6-THIOGUANINE, Metabolic Activation: NONE): inactive; negative
mutagenic call (Test System: UDS RAT HEPATOCYTES, Strain/Indicator: THY INCORP, Metabolic Activation: NONE, Method: AUTORADIOGRAPHY): inactive; negative

O=NN(c1ccc([N+](=O)[O-])cc1)C1OC[C@@H](O)[C@@H](O)[C@H]1O (stereo partly drawn)
mutagenic call [5]: active; positive

O=C1c2ccccc2C([N+](=O)[O-])c2ccccc21
mutagenic call [3]: inactive; negative
mutagenic call [4]: inactive; negative
mutagenic call [5]: inactive; negative
mutagenic call [6]: inactive; negative

Source: PubChem BioAssay AID1259407 (Chemical Carcinogenesis Research Information System (CCRIS), 2018)
